Assay results reported in patent US10456439B2, “NK3 agonist for use in the treatment of a patient suffering from atrial arrhythmia or fibrillation” (priority 2014, dated 2019).
Entries after “also recorded” stand apart in the source; their conditions may differ. Where a SMILES comes first, the peptide text is derived from it.

Assays:
NK-3 receptor [1] = target: T1, NK-3 receptor (Homo sapiens, UniProt P29371); details: cited from earlier work
T1 sequence (P29371 1-465): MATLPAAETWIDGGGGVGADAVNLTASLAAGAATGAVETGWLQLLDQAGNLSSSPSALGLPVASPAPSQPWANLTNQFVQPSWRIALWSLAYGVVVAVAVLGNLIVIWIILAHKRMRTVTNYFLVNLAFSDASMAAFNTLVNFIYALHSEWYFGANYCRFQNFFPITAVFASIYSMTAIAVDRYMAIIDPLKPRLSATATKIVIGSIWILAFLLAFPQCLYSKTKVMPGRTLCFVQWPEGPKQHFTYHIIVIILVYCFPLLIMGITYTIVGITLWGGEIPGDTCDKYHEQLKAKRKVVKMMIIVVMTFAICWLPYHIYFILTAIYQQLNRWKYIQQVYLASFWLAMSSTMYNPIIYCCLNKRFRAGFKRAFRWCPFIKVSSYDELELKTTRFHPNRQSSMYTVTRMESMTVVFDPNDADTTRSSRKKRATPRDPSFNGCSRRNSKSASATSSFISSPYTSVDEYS

NK-1 receptor = NK-1 receptor (Homo sapiens, UniProt P25103); details: cited from earlier work
NK-1 receptor, sequence (P25103 whole entry, species assumed): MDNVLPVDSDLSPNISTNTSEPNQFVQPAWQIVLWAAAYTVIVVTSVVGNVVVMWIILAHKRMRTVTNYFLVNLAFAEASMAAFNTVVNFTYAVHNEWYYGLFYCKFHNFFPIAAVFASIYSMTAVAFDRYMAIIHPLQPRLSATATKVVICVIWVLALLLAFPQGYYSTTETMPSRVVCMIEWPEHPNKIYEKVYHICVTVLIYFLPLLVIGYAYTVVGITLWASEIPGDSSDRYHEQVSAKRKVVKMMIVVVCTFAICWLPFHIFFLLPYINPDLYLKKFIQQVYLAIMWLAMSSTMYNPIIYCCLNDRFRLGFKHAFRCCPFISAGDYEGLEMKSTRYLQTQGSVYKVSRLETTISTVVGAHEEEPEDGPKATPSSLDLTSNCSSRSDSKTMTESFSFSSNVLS

NK2-receptor = target: T2, NK2-receptor (Homo sapiens, UniProt P21452); details: cited from earlier work
T2 sequence (P21452 1-398): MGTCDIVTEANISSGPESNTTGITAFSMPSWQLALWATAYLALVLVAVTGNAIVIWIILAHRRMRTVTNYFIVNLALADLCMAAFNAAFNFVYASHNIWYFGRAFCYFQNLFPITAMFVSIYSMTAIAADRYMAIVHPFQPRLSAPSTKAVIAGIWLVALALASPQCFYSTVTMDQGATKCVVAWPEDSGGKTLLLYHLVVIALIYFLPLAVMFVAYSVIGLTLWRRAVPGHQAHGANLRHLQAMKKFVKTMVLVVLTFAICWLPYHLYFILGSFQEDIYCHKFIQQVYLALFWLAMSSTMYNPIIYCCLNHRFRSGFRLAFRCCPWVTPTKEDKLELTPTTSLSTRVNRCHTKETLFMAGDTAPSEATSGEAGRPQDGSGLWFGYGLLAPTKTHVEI

rabbit atrial myocytes = experiment: Action potential recording (perforated patch clamp) in rabbit atrial myocytes; details: increasing concentrations, result in words
Protocol: (§2) Male New Zealand White specified pathogen free rabbits (2.5-3.5 kg) were anaesthetized with a combination of 20 mg xylazine and 100 mg ketamine (intramuscularly) and heparinized with a bolus of 1000 IU heparin (intravenously). Subsequently, the animals were killed by 200 mg pentobarbital intravenously, after which the heart was quickly excised and mounted on a langendorff perfusion apparatus. […] Single atrial cells were isolated from the left atrium using the same protocol with a modification consisting of complementing the enzymatic solution with 6.6 pg/mL protease.
(§3) Small aliquots of single cell suspension were introduced into a recording chamber on the stage of an inverted microscope. Cells were allowed to adhere for 5 minutes after which superfusion was started. Single quiescent rod-shaped myocytes with clear cross-striations and smooth surfaces were selected for measurements.
(§4) Voltage control, data acquisition, and analysis were performed using custom-made software.
(§5) Potentials were corrected for liquid junction potential [3]. Signals were low-pass filtered (cut-off frequency: 5 kHz) and digitized at 40 kHz. Cell membrane capacitance (Cm) was estimated by dividing the decay time constant of the capacitive transient in response to 5 mV hyperpolarizing voltage clamp steps from a holding potential of −40 mV, by the series resistance.
(§6) APs were measured with the amphotericin-B-perforated patch clamp technique using normal Tyrode's solution containing (in mM): NaCl 140, KCl 5.4, CaCl2 1.8, MgCl2 1.0, glucose 5.5, HEPES 5.0, pH 7.4 (NaOH). The patch-pipettes (borosilicate glass; 1-3 MΩ) were filled with a ‘standard’ solution containing (in mM): K-gluconate 110, KCl 30, NaCl 5, MgCl2 1, amphotericin-B 0.22, HEPES 10, pH 7.3 (KOH).
(§7) APs were elicited at 2 Hz by 2-ms (1.5×diastolic stimulation threshold) current pulses applied through the patch pipette. […] Values obtained from 10 consecutive APs were averaged.
(§8) The NK-agonists were applied in a cumulative sequence with 5 minutes intervals between increments in concentration. Effects were assessed after equilibration, but not earlier than 3 minutes after application.

[2] = system: left atrium of Langendorff-perfused rabbit heart; experiment: Left atrial effective refractory period in Langendorff-perfused rabbit hearts; details: for Longest S1-S2 interval that fails to produce atrial activation (A-ERP): basic cycle length 200 ms; for Effect on atrial effective refractory period, in words / Prolongation of the S1-S2 interval measured in the left atrium: Langendorff-perfused rabbit heart; for Prolongation of the S1-S2 interval measured in the left atrium: difference to control
Protocol: (§1) After the heart was excised, it was cannulated, quickly mounted on a Langendorff perfusion set-up, and perfused at 37° C. with a solution containing (in mmol/L) 128 NaCl, 4.7 KCl, 1.45 CaCl2), 0.6 MgCl2, 27 NaHCO3, 0.4 NaH2PO4, and 11 glucose (pH maintained at 7.4 by equilibration with a mixture of 95% 02 and 5% CO2). The left atrium (ventricle) was stimulated at a basic cycle length of 200 ms, and twice the diastolic stimulus current threshold. […] The effective refractory period was defined as the longest S1-S2 interval failing to produce atrial (ventricular) activation.

NK-3 receptor [3] = target: T1, NK-3 receptor; details: cited from earlier work; remark: listed apart in the source
Murine NK3 receptor [4] = target: T3, Murine NK3 receptor (Mus musculus, UniProt P47937); details: read-out: Binding (Inhibition of [125I]-[MePhe7]neurokinin B) Murine NK3 receptor, Ki; HEK 293-murine NK3 receptor cells; mean ± SEM; cited from earlier work
T3 construct: expressed in transfected cells; host or cells: HEK 293
T3 sequence (P47937 1-452): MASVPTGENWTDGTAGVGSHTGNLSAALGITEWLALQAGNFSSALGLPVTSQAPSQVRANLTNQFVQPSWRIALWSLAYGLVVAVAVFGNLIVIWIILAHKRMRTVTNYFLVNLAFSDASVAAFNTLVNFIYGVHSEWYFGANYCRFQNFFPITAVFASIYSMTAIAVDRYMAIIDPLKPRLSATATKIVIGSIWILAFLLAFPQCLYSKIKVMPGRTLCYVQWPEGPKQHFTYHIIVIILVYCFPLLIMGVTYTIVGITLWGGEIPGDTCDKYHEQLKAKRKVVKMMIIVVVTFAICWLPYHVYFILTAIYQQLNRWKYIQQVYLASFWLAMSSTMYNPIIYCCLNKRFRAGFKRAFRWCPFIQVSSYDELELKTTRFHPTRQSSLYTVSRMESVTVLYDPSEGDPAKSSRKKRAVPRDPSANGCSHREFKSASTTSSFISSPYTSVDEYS

Murine NK3 receptor [5] = target: T3, Murine NK3 receptor; details: HEK 293-murine NK3 receptor cells; mean ± SEM; read-out: Ca2+ Mobilization Murine NK3 receptor, EC50; cited from earlier work
NK-3 receptor [6] = target: T1, NK-3 receptor; design: expressed in transfected cells; host or cells: HEK 293; details: read-out: Binding (Inhibition of [125I]-[MePhe7]neurokinin B) Human NK3 receptor, HEK 293-human NK3 receptor cells, mean ± SEM; cited from earlier work
NK-3 receptor [7] = target: T1, NK-3 receptor; design: expressed in transfected cells; host or cells: HEK 293; details: HEK 293-human NK3 receptor cells, mean ± SEM, read-out: Ca2+ Mobilization Human NK3 receptor; cited from earlier work
[8] = system: ventricle of Langendorff-perfused rabbit heart; experiment: Ventricular effective refractory period in Langendorff-perfused rabbit hearts; details: 20-50 nM Senktide
Protocol: as §1

[9] = system: left atrium of anesthetized rabbit; experiment: In vivo left atrial effective refractory period in the anesthetised rabbit; details: single bolus 11 nmol/kg, basic cycle length 220 ms, control 110 ms
Protocol: Male New Zealand White rabbits were anesthetized with ketamine 50 mg/kg and xylazine 8 mg/kg (and additionally 0.09 mg/kg Temgesic for pain relief) subcutaneously, intubated, and artificially ventilated. Anesthesia was maintained by isoflurane (0.8-1.2%). Catheters for drug infusions and blood pressure recording were inserted into marginal ear veins/arteries. Following thoracotomy, the pericardium was opened to expose the heart. A stimulation- and recording-electrode were placed on the left atrium for epicardial electrophysiological study. The left atrium was stimulated at a basic cycle length of 220 ms, and twice the diastolic stimulus current threshold. […] The effective refractory period was defined as the longest S1-S2 interval failing to produce atrial activation. Approximately 30 minutes after the completion of the preparation when the rabbit was hemodynamically and electrophysiologically stable, control measurements were undertaken.

[10] = system: human left atrial appendage (LAA); experiment: Effective refractory period in human left atrial appendages; details: basic cycle length 600 ms
Source text: Left atrial appendages (LAA) were routinely removed from patients with atrial fibrillation receiving PVI (pulmonary vein isolation) ablation. The LAAs were removed using an endoscopic stapling device (Endo Gia stapler, Tyco Healthcare Group). The tissue samples were transported in 100-mL cooled superfusion fluid (Na^+, 155.5 mmol/L; K^+, 4.7 mmol/L; Ca^2+, 1.45 mmol/L; Mg^2+, 0.6 mmol/L; Cl^−, 136.6 mmol/L; HCO3^−, 27 mmol/L; PO4^3−, 0.4 mmol/L; glucose, 11.1 mmol/L; and heparin, 1000 IE) and submerged in a tissue bath. The superfusion fluid was kept at a stable temperature of 36.5° C. to 37.5° C. and oxygenized with a mixture of 95% O2 and 5% CO2 to maintain a pH of 7.4. LAAs were stimulated at 100 beats per minute at 2-3 times diastolic threshold with a pulse width of 2 ms using an epicardial electrode.
The effective refractory period was defined as the longest S1-S2 interval failing to produce atrial (ventricular) activation.

[11] = system: rabbit ventricular myocytes; experiment: Action potential recording (perforated patch clamp) in rabbit ventricular myocytes; details: 2 Hz, 1-10 μM substance P or 100 nM Senktide
Protocol: as §2, §3, §4, §5, §6, §7, §8

## RSRTRQFYGLM [Hemokinin-1]
NK-3 receptor [1]
  NK-3 receptor Affinity (pK1): 8.6-9.3 pK1
NK-1 receptor
  NK-1 receptor Affinity (pK1): 9.8-11.7 pK1
NK2-receptor
  NK2-receptor Affinity (pK1): 6.3 pK1

## CSCC[C@H](NC(=O)[C@H](CC(C)C)NC(=O)CNC(=O)[C@@H](NC(=O)[C@H](Cc1ccccc1)NC(=O)[C@H](CCC(N)=O)NC(=O)[C@H](CC(=O)O)NC(=O)[C@H](CO)NC(=O)[C@H](CCCCN)NC(=O)[C@@H]1CCCN1C(=O)[C@@H](NC(=O)[C@@H](N)CC(=O)O)C(C)C)C(C)C)C(N)=O [Kassinin] (H-DVPKSDQFVGLM-NH2)
NK-3 receptor [1]
  NK-3 receptor Affinity (pIC50): 6.7-7.0 pIC50
NK-1 receptor
  NK-1 receptor Affinity (pIC50): 6.6-7.1 pIC50

## [Sar9, Met (O2)11]-Substance P
Rabbit atrial myocytes
  Effect on atrial action potential (AP) duration: absence of effect; also recorded: does not affect AP duration

## Asp-Met-His-Asp-Phe-Phe-(Me)Phe-Gly-Leu-Met-NH2 (DMHDFFFGLM; HELM PEPTIDE1{D.M.H.D.F.F.[meF].G.L.M.[am]}$$$$V2.0; N-terminus assumed; SMILES CSCC[C@H](NC(=O)[C@H](CC(C)C)NC(=O)CNC(=O)[C@H](Cc1ccccc1)N(C)C(=O)[C@H](Cc1ccccc1)NC(=O)[C@H](Cc1ccccc1)NC(=O)[C@H](CC(=O)O)NC(=O)[C@H](Cc1c[nH]cn1)NC(=O)[C@H](CCSC)NC(=O)[C@@H](N)CC(=O)O)C(N)=O; listed as Homo sapiens) [[MePhe^7]neurokinin B]
[2]; 20 nM (N-Me-Phe7)-NKB, control 75 ms
  Longest S1-S2 interval that fails to produce atrial activation (A-ERP): 105 ms
[2]
  Effect on atrial effective refractory period, in words: prolongs the atrial effective refractory period
  Prolongation of the S1-S2 interval measured in the left atrium: 30 ms
NK-3 receptor [1]
  NK-3 receptor Affinity (pK1): 8.7-9.6 pK1
NK-3 receptor [3]
  NK-3 receptor Affinity (pEC50): 8.9 pEC50
Murine NK3 receptor [4]
  Ki: 0.6 ± 0.1 nM
Murine NK3 receptor [5]
  EC50: 0.26 ± 0.13 nM
NK-3 receptor [6]
  Ki: 1.8 ± 1 nM
NK-3 receptor [7]
  EC50: 0.3 ± 0.1 nM

## CSCC[C@H](NC(=O)[C@H](CC(C)C)NC(=O)CNC(=O)[C@H](Cc1ccccc1)N(C)C(=O)[C@H](Cc1ccccc1)NC(=O)[C@H](CC(=O)O)NC(=O)CCC(=O)O)C(N)=O [Senktide, N-(3-carboxy-1-oxopropyl)-L-α-aspartyl-L-phenylalanyl-N-methyl-L-phenylalanylglycyl-L-leucyl-L-methioninamide] (HELM PEPTIDE1{[O=C(O)CCC(=O)[*:2]].D.F.[meF].G.L.M.[am]}$$$$V2.0)
[2]; 750 nM Senktide, control 80 ms
  Longest S1-S2 interval that fails to produce atrial activation (A-ERP): 100 ms
[2]
  Effect on atrial effective refractory period, in words: prolongs the atrial refractory period
  Prolongation of the S1-S2 interval measured in the left atrium: 20 ms
[8]
  Effect on ventricular effective refractory period (V-ERP): not affected
[9]
  Longest S1-S2 interval that fails to produce atrial activation (A-ERP) in vivo: 160 ms
[10]; 50 nM Senktide, control 290 ms
  Longest S1-S2 interval that fails to produce atrial activation (ERP) in human LAA: 440 ms
[10]; wash out after 50 nM Senktide
  Effective refractory period in human LAA after wash out: 320 ms
Murine NK3 receptor [4]
  Ki: 11.9 ± 2.1 nM
Murine NK3 receptor [5]
  EC50: 0.15 ± 0.09 nM
Rabbit atrial myocytes
  Effect on atrial action potential (AP) duration: significantly prolongs the AP duration
[11]
  Effect on ventricular action potential (AP) duration: absence of effect; also recorded: does not prolong the AP

## CC[C@H](C)[C@H](NC(=O)[C@H](Cc1ccccc1)NC(=O)[C@H](C)NC(=O)[C@H](CC(=O)O)NC(=O)[C@H](CCCCN)NC(=O)[C@H](CO)NC(=O)[C@@H]1CCCN1C(=O)[C@@H]1CCC(=O)N1)C(=O)NCC(=O)N[C@@H](CC(C)C)C(=O)N[C@@H](CCSC)C(N)=O [Eledoisin] (HELM PEPTIDE1{[Glp].P.S.K.D.A.F.I.G.L.M.[am]}$$$$V2.0)
NK-3 receptor [1]
  NK-3 receptor Affinity (pIC50): 6.2-6.6 pIC50
NK-1 receptor
  NK-1 receptor Affinity (pIC50): 8.6 pIC50

## Neurokinin B: natural NK3-receptor agonist, CAS registry No. 86933-75-7
NK2-receptor
  NK2-receptor Affinity (pK1): 5.0-7.7 pK1
Murine NK3 receptor [4]
  Ki: 2.3 ± 0.3 nM
Murine NK3 receptor [5]
  EC50: 0.09 ± 0.02 nM

## Neurokinin A: compound having CAS registry No. 86933-74-6
NK-3 receptor [1]
  NK-3 receptor Affinity (pK1): 5.5-6.3 pK1
NK-3 receptor [3]
  NK-3 receptor Affinity (pEC50): 7.4 pEC50
Murine NK3 receptor [4]
  Ki: 785 ± 195 nM
Murine NK3 receptor [5]
  EC50: 0.82 ± 0.24 nM
NK-3 receptor [6]
  Ki: 3300 ± 240 nM
NK-3 receptor [7]
  EC50: 22 ± 4 nM

## Substance P: agonist of multiple neurokinin receptors, CAS registry No. 33507-63-0
Murine NK3 receptor [4]
  Ki: 4920 ± 2250 nM
Murine NK3 receptor [5]
  EC50: 5.4 ± 2.4 nM
Rabbit atrial myocytes
  Effect on atrial action potential (AP) duration: significantly prolongs the AP duration
[11]
  Effect on ventricular action potential (AP) duration: does not prolong the AP
[11]; listed as substance P
  Effect on ventricular action potential (AP) duration: absence of effect
